# Test results published in patent US20110039289A1, “FLUOROGENIC PEPTIDES AND THEIR METHOD OF PRODUCTION” (priority 2008, published 2011).
# Assays:
# [1] = Fluorescence lifetime by time correlated single photon counting; details: 2-aminoacridone attached directly to the α-carboxylic acid group
# Description: The fluorescence lifetimes of the synthesised peptides recorded above were measured by time correlated single photon counting. Peptides were dissolved in aqueous buffer solutions and excited at 405 nm using a pulsed solid state laser diode (Picoquant LDH-405). Fluorescent emission was filtered through a narrow bandpass interference filter (480/20 nm) and single photons were detected by a photomultiplier tube detector (Hamamatsu R7400P) and counted using a fast timing board with histogramming memory (Ortec 9353).
# [2] = target: T1, caspase 3 enzyme (Homo sapiens, UniProt P42574); test: Cleavage of fluorogenic peptides by caspase 3 (Example 3, FIG. 1); assay type: biochemical; details: 1 mM Zn2+
# T1 sequence (P42574 29-175 limits assumed): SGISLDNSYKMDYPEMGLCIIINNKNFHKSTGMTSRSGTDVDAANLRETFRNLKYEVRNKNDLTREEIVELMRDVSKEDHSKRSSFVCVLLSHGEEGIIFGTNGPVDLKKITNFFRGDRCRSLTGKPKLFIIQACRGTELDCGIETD
# T1 sequence (P42574 176-277 limits assumed): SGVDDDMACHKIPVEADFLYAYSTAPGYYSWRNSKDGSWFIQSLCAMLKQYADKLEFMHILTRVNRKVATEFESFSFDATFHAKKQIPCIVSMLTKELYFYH
# Text: Caspase 3 cleaves WSDEVD-(2aa2) and WSDEVD-(2aa6) at the second aspartic acid residue.
# PT14 peptide is WSDEVD-PT14, a conventionally labeled peptide, where PT14 is the Puretime 14 moiety. PT14 peptide is also known as peptide 10, but is not made in accordance with the method of the present invention. Puretime 14 is available from AssayMetrics Limited, Cardiff, UK.
effect on the action of caspase 3 enzyme [2],Molecule,fluorescence lifetime of adducts of 2-aminoacridone [1]
–,CC(=O)N[C@@H](C)C(=O)Nc1ccc2[nH]c3ccccc3c(=O)c2c1,18.1 nanoseconds
–,CC(=O)N[C@@H](Cc1ccc(O)cc1)C(=O)Nc1ccc2[nH]c3ccccc3c(=O)c2c1,9.4 nanoseconds
inhibited the action of the enzyme,zinc ions [reference compound],–
–,CC(=O)N[C@@H](Cc1c[nH]c2ccccc12)C(=O)Nc1ccc2[nH]c3ccccc3c(=O)c2c1,3.0 nanoseconds
